According to the NIST ThermoML archive (doi:10.1021/acs.jced.5b00251):
Numbers after ± are expanded uncertainties.

Assay: refractive index (other wavelength) (dimensionless); xn = mol fraction of the nth substance listed
Conditions: 101 kPa, Liquid, Standard Abbe refractometry

CC(C)Cc1ccccc1 [(2-methylpropyl)benzene] + CCCCCCCCCCCC
refractive index
Conditions | x1 = 0.1014 | x1 = 0.2024 | x1 = 0.3032 | x1 = 0.4036 | x1 = 0.5038 | x1 = 0.6036 | x1 = 0.7032 | x1 = 0.8024 | x1 = 0.9014
293.15 K, Wavelength=436.1 nm | 1.43714 ± 0.00073 | 1.44344 ± 0.00074 | 1.45015 ± 0.00075 | 1.45682 ± 0.00076 | 1.46405 ± 0.00077 | 1.47144 ± 0.00077 | 1.47917 ± 0.00076 | 1.48711 ± 0.00079 | 1.49556 ± 0.0008
293.15 K, Wavelength=513.9 nm | 1.4307 ± 0.00084 | 1.4365 ± 0.00082 | 1.44273 ± 0.00082 | 1.44889 ± 0.00083 | 1.45559 ± 0.00086 | 1.46247 ± 0.00086 | 1.46959 ± 0.00086 | 1.47693 ± 0.00089 | 1.48487 ± 0.00099
293.15 K, Wavelength=589.3 nm | 1.42708 ± 0.00074 | 1.4326 ± 0.00076 | 1.43856 ± 0.00075 | 1.44443 ± 0.00076 | 1.45083 ± 0.00078 | 1.45746 ± 0.00077 | 1.46421 ± 0.00077 | 1.47122 ± 0.00079 | 1.47869 ± 0.00083
293.15 K, Wavelength=633.2 nm | 1.42554 ± 0.00075 | 1.43094 ± 0.00074 | 1.4368 ± 0.00075 | 1.44255 ± 0.00077 | 1.44884 ± 0.00077 | 1.45524 ± 0.00075 | 1.46196 ± 0.00074 | 1.46884 ± 0.00076 | 1.47617 ± 0.00076
293.15 K, Wavelength=657.2 nm | 1.42541 ± 0.00079 | 1.43084 ± 0.00073 | 1.43659 ± 0.00076 | 1.44269 ± 0.00076 | 1.44849 ± 0.00078 | 1.45427 ± 0.00076 | 1.46085 ± 0.00074 | 1.46776 ± 0.00074 | 1.47491 ± 0.00075
298.15 K, Wavelength=436.1 nm | 1.43491 ± 0.00073 | 1.44124 ± 0.00074 | 1.44775 ± 0.00074 | 1.45454 ± 0.00075 | 1.46153 ± 0.00075 | 1.46903 ± 0.00075 | 1.47676 ± 0.00076 | 1.48462 ± 0.00077 | 1.49284 ± 0.00079
298.15 K, Wavelength=513.9 nm | 1.42851 ± 0.00072 | 1.43425 ± 0.00073 | 1.44037 ± 0.00073 | 1.44665 ± 0.00074 | 1.45312 ± 0.00075 | 1.46005 ± 0.00075 | 1.46722 ± 0.00075 | 1.4745 ± 0.00076 | 1.48229 ± 0.00077
298.15 K, Wavelength=589.3 nm | 1.4249 ± 0.00072 | 1.43032 ± 0.00073 | 1.43623 ± 0.00072 | 1.44221 ± 0.00073 | 1.44841 ± 0.00074 | 1.45504 ± 0.00074 | 1.46188 ± 0.00074 | 1.46882 ± 0.00075 | 1.47611 ± 0.00076
298.15 K, Wavelength=633.2 nm | 1.42337 ± 0.00072 | 1.42885 ± 0.00072 | 1.43449 ± 0.00072 | 1.44035 ± 0.00073 | 1.44642 ± 0.00073 | 1.45293 ± 0.00073 | 1.45965 ± 0.00074 | 1.46646 ± 0.00074 | 1.47371 ± 0.00075
298.15 K, Wavelength=657.2 nm | 1.42267 ± 0.00075 | 1.42867 ± 0.00073 | 1.43417 ± 0.00072 | 1.44009 ± 0.00073 | 1.44578 ± 0.00075 | 1.45198 ± 0.00073 | 1.45863 ± 0.00073 | 1.46548 ± 0.00074 | 1.47249 ± 0.00075
303.15 K, Wavelength=436.1 nm | 1.43262 ± 0.00073 | 1.43872 ± 0.00074 | 1.44552 ± 0.00075 | 1.45204 ± 0.00075 | 1.45929 ± 0.00075 | 1.4666 ± 0.00076 | 1.47424 ± 0.00076 | 1.48209 ± 0.00077 | 1.49024 ± 0.00077
303.15 K, Wavelength=513.9 nm | 1.42624 ± 0.00073 | 1.43187 ± 0.00073 | 1.43818 ± 0.00074 | 1.44421 ± 0.00074 | 1.45077 ± 0.00074 | 1.45769 ± 0.00074 | 1.46477 ± 0.00075 | 1.47203 ± 0.00076 | 1.47981 ± 0.00076
303.15 K, Wavelength=589.3 nm | 1.42267 ± 0.00072 | 1.42804 ± 0.00073 | 1.43406 ± 0.00074 | 1.43981 ± 0.00073 | 1.44611 ± 0.00074 | 1.45269 ± 0.00074 | 1.45946 ± 0.00075 | 1.46639 ± 0.00075 | 1.47362 ± 0.00075
303.15 K, Wavelength=633.2 nm | 1.42115 ± 0.00072 | 1.42643 ± 0.00072 | 1.43232 ± 0.00074 | 1.43796 ± 0.00073 | 1.44427 ± 0.00073 | 1.45059 ± 0.00073 | 1.45721 ± 0.00074 | 1.46405 ± 0.00074 | 1.47135 ± 0.00076
303.15 K, Wavelength=657.2 nm | 1.42052 ± 0.00072 | 1.42618 ± 0.00074 | 1.4321 ± 0.00071 | 1.43801 ± 0.00073 | 1.44358 ± 0.00073 | 1.44965 ± 0.00075 | 1.45625 ± 0.00074 | 1.46299 ± 0.00075 | 1.47001 ± 0.00075
308.15 K, Wavelength=436.1 nm | 1.43035 ± 0.00073 | 1.43663 ± 0.00074 | 1.44293 ± 0.00076 | 1.44977 ± 0.00075 | 1.45671 ± 0.00075 | 1.46416 ± 0.00076 | 1.47181 ± 0.00076 | 1.47955 ± 0.00077 | 1.48775 ± 0.00078
308.15 K, Wavelength=513.9 nm | 1.42401 ± 0.00072 | 1.42966 ± 0.00073 | 1.43562 ± 0.00075 | 1.44199 ± 0.00074 | 1.44841 ± 0.00074 | 1.45531 ± 0.00075 | 1.46239 ± 0.00075 | 1.46958 ± 0.00076 | 1.47731 ± 0.00075
308.15 K, Wavelength=589.3 nm | 1.42043 ± 0.00072 | 1.42581 ± 0.00073 | 1.43152 ± 0.00074 | 1.43762 ± 0.00073 | 1.44375 ± 0.00073 | 1.45034 ± 0.00074 | 1.45708 ± 0.00074 | 1.46398 ± 0.00075 | 1.47126 ± 0.00075
308.15 K, Wavelength=633.2 nm | 1.41894 ± 0.00072 | 1.42433 ± 0.00072 | 1.42979 ± 0.00074 | 1.4358 ± 0.00073 | 1.44178 ± 0.00073 | 1.44827 ± 0.00074 | 1.45488 ± 0.00074 | 1.46165 ± 0.00074 | 1.46871 ± 0.00075
308.15 K, Wavelength=657.2 nm | 1.41824 ± 0.00072 | 1.42395 ± 0.00074 | 1.42984 ± 0.00072 | 1.43554 ± 0.00075 | 1.44115 ± 0.00074 | 1.44715 ± 0.00074 | 1.45387 ± 0.00073 | 1.46065 ± 0.00074 | 1.46758 ± 0.00075
313.15 K, Wavelength=436.1 nm | 1.42808 ± 0.00073 | 1.43404 ± 0.00073 | 1.44059 ± 0.00076 | 1.4473 ± 0.00075 | 1.45448 ± 0.00076 | 1.46172 ± 0.00076 | 1.46924 ± 0.00077 | 1.47706 ± 0.00077 | 1.48511 ± 0.00078
313.15 K, Wavelength=513.9 nm | 1.42179 ± 0.00072 | 1.42725 ± 0.00073 | 1.43332 ± 0.00074 | 1.43955 ± 0.00074 | 1.44611 ± 0.00073 | 1.45293 ± 0.00075 | 1.4599 ± 0.00076 | 1.46712 ± 0.00076 | 1.47502 ± 0.00075
313.15 K, Wavelength=589.3 nm | 1.41826 ± 0.00072 | 1.42345 ± 0.00073 | 1.42938 ± 0.00075 | 1.4352 ± 0.00073 | 1.44159 ± 0.00074 | 1.44797 ± 0.00074 | 1.45466 ± 0.00075 | 1.46154 ± 0.00075 | 1.46878 ± 0.00077
313.15 K, Wavelength=633.2 nm | 1.41677 ± 0.00072 | 1.42191 ± 0.00072 | 1.42752 ± 0.00074 | 1.43336 ± 0.00073 | 1.43965 ± 0.00074 | 1.4459 ± 0.00074 | 1.45247 ± 0.00074 | 1.45924 ± 0.00075 | 1.46652 ± 0.00076
313.15 K, Wavelength=657.2 nm | 1.41612 ± 0.00072 | 1.42149 ± 0.0007 | 1.42761 ± 0.0007 | 1.43304 ± 0.00073 | 1.43882 ± 0.00072 | 1.44496 ± 0.00074 | 1.45159 ± 0.00073 | 1.45817 ± 0.00074 | 1.46515 ± 0.00075
318.15 K, Wavelength=436.1 nm | 1.42579 ± 0.00073 | 1.43204 ± 0.00071 | 1.43791 ± 0.00073 | 1.44498 ± 0.00075 | 1.4518 ± 0.00076 | 1.45921 ± 0.00076 | 1.46673 ± 0.00075 | 1.47452 ± 0.00076 | 1.48247 ± 0.00078
318.15 K, Wavelength=513.9 nm | 1.41953 ± 0.00064 | 1.42512 ± 0.00065 | 1.43094 ± 0.00067 | 1.43729 ± 0.00065 | 1.44389 ± 0.00066 | 1.45049 ± 0.00066 | 1.45744 ± 0.00066 | 1.46465 ± 0.00065 | 1.47245 ± 0.00064
318.15 K, Wavelength=589.3 nm | 1.41596 ± 0.0007 | 1.42122 ± 0.00069 | 1.42669 ± 0.00073 | 1.43297 ± 0.00071 | 1.43898 ± 0.00073 | 1.44556 ± 0.00072 | 1.45224 ± 0.00072 | 1.4591 ± 0.00072 | 1.46615 ± 0.00071
318.15 K, Wavelength=633.2 nm | 1.41454 ± 0.00072 | 1.41993 ± 0.00068 | 1.425 ± 0.00068 | 1.43114 ± 0.0007 | 1.4371 ± 0.00073 | 1.44352 ± 0.00074 | 1.45008 ± 0.00072 | 1.45679 ± 0.00073 | 1.46372 ± 0.00078
318.15 K, Wavelength=657.2 nm | 1.41386 ± 0.00072 | 1.41979 ± 0.00066 | 1.42574 ± 0.00071 | 1.43091 ± 0.00069 | 1.43665 ± 0.00071 | 1.44244 ± 0.00071 | 1.44935 ± 0.00073 | 1.45594 ± 0.00072 | 1.46262 ± 0.00076
